Patent publication US5656662A, “Synthesis of optically pure 4-alkenyl- or 4-alkanyl-2-hydroxytetronic acids” (The Ohio State University Research Foundation, priority 1995, dated 1997)

What was measured:
Type in all cases: cell-based
[1] = tested on: PGE2; assay: PGE2 production by purified human monocytes; design: key to EFFECT on PGE2: NE: No effect; INHIB: Inhibition; STIM: Stimulation; IC40: 40% Inhibitory Concentration; EC50: 50% Effective Concentration; TC: Tolerated Concentration; IA: Interferes with Assay
Method: (§1) This procedure measures the ability of test compounds to modulate the amount of PGE2 produced by purified human monocytes. Compounds are tested for their ability to downregulate the secretion of PGE2 from activated monocytes, or upregulate secretion of PGE2 from unstimulated monocytes. Test compounds are incubated for ninety minutes with purified human monocytes at four dilutions over a range of three log10 concentrations. Where appropriate, zymosan is used to stimulate the monocytes.
The level of PGE2 in the resultant supernatants is quantitated by immunoassay performed in a 96 well format. PGE2 levels modulated by unknown compounds are determined by interpolation from a standard curve. All compounds are tested in duplicate with controls and standards.

[2] = tested on: TNFα; assay: TNFα production from purified human monocytes; design: key to EFFECT on TNFα: NE: No effect; INHIB: Inhibition; STIM: Stimulation; IC40: 40% Inhibitory Concentration; EC50: 50% Effective Concentration; TC: Tolerated Concentration; IA: Interferes with Assay
Method: (§2) This assay determines the effect of test compounds on the production of TNFα from purified human monocytes. Compounds are tested for their ability to downregulate the production of TNFα in activated monocytes, or upregulate secretion of TNFα in unstimulated monocytes. Test compounds are incubated for sixteen hours with purified human monocytes at four dilutions over a range of three log10 concentrations. Where appropriate, lipopolysaccharide (LPS) is used to stimulate the monocytes.
The level of TNFα in the resultant supernatants is quantitated in a solid phase Enzyme-linked Immunoassay (EIA) performed in a 96 well format. TNFα present in the samples is captured by a specific monoclonal antibody immobilized on the well, and detected with an anti-TNFα polyclonal antibody conjugated to horse radish peroxidase, followed by an appropriate substrate. The levels of TNFα are determined by interpolation of the resultant color change in the substrate from a standard curve. All supernatants are tested in duplicate with controls and standards.
as §2, with “production of TNF from purified” for “production of TNFα from purified”, “incubated for sixteeen hours with” for “incubated for sixteen hours with”

[3] = tested on: normal human mononuclear cells; assay: Two Way Mixed Lymphocyte Reaction; design: key: NE: No effect; INHIB: Inhibition; STIM: Stimulation; IC40: 40% Inhibitory Concentration; EC50: 50% Effective Concentration; TC: Tolerated Concentration; IA: Interferes with Assay
Method: The purpose of this procedure is to determine the effect of test compounds on Mixed Lymphocyte Reaction and Mitogen-Induced Proliferation of normal human mononuclear cells.
Procedure for Two Way Mixed Lymphocyte Reaction: PBMNC from two different donors are added to a 96-well cell culture plate. Four dilutions of test compounds, over a range of three log10 in quadruplicate, along with negative and inhibitory controls are then added to the plate and incubated for six days. Cultures are subsequently pulsed, harvested, and counted as above.

[4] = tested on: PAF; assay: PAF production by purified human monocytes; design: key: NE: No effect; INHIB: Inhibition; STIM: Stimulation; IC40: 40% Inhibitory Concentration; EC50: 50% Effective Concentration; TC: Tolerated Concentration; IA: Interferes with Assay
Method: as §1, with “This assay” for “This procedure”, “of PAF” for “of PGE2”, “monocytes ar” for “monocytes at”
The level of PAF in the resultant supernatants is quantitated by immunoassay performed in a 96 well format. PAF levels modulated by unknown compounds are determined by interpolation from a standard curve. All compounds are tested in duplicate with controls and standards.
as §1, with “This assay” for “This procedure”, “of PAF” for “of PGE2”, “by purified,” for “by purified”, “monocytes ar” for “monocytes at”

**Q.** How did the EC50 ([1]; Homo sapiens, Monocyte, STIMULATED, INHIB) turn out when CCCCCCCCCCCCCC/C=C\CC[C@@H]1OC(=O)C(O)=C1O [(S)-3,4-Dihydroxy-5-[(Z)-3-octadecenyl]-2(5H)-furanone] was run?
**A.** 2 µM

**Q.** What about the “EFFECT on PGE2” value ([1]; STIMULATED) of the same compound?
**A.** INHIB

**Q.** What about the “EFFECT on PGE2” value ([1]; UNSTIMULATED) of the same compound?
**A.** NE

**Q.** And the EC50 ([2]; Homo sapiens, Monocyte, STIMULATED, STIM)?
**A.** 38 µM

**Q.** And the “EFFECT on TNFα” value ([2]; STIMULATED)?
**A.** STIM

**Q.** And the “EFFECT on TNFα” value ([2]; UNSTIMULATED)?
**A.** NE

**Q.** What about the “EFFECT on MLR” value [3] of the same compound?
**A.** NE

**Q.** And the “EFFECT on PAF” value ([4]; STIMULATED)?
**A.** NE

**Q.** And the “EFFECT on PAF” value ([4]; UNSTIMULATED)?
**A.** NE
